Assay results published in patent publication US9012403B2, “Peptides as active agents to stabilize biological barriers” (XiberScience GmbH, priority 2010, dated 2015).
Marks after values point to notes of the source that are not given here.

Tests used:
Type in all cases: cell-based
GEF [1] = assay: GEF-activity in membrane fractions of ECV304 cells (RhoGEF Exchange Assay)
Procedure: (§1) To measure the GEF-inhibitory effect, the following cell lines were used: Caco-2 (epithelial cells from adeno-carcinoma), ECV304 (epithelial cells from bladder carcinoma) and HpMec (endothelial cells, immortalized pulmonary micro-vascular cells). All cells were grown at standard conditions (37° C., 5% CO2 and 95% relative humidity (rH)). Culture Medium used for Caco-2: DMEM+1 mM sodium pyruvate+20% FCS+1% Penicillin Streptomycin; for ECV 304: RPMI 1640+10% FCS+1% Penicillin Streptomycin; and for HpMec: IMDM+25 mM Hepes+10% Human Serum+1% Penicillin Streptomycin+1% L-Glutamine+ECGS/Heparin 2 ml. 4 h before the experiment, cells were starved by serum withdrawal. To induce GEF-activity, cells were stimulated with thrombin, lipopolysaccharide (LPS) or PMA for the indicated time in presence or absence of 50 μg/ml XIB1-a or XIB1-b. After stimulation, membrane fractions were prepared by using the commercial available “Compartemental Protein Extraction Kit” from Biochain institutes. Membrane fractions were prepared according to the manufacturer instructions. GEF-activity in membrane lysates was determined by using “RhoGEF Exchange Assay Biochem Kit” from Cytoskeleton Inc. according to manufacturer instructions. GEF-activity was measured as fluorescence at using the Fluoroskan Ascent FL 2.6 from Thermo Electron Corporation. The excitation Filter wavelength was set at 355 nm and the emission filter wavelength at 460 nm.

GEF [2] = assay: GEF-activity in membrane fractions of HpMec cells (RhoGEF Exchange Assay); details: HpMec
Procedure: as §1

GTP-bound RhoA [3] = assay: GTP-associated active RhoA in ECV304 membrane fraction (western blot)
Procedure: (§2) To measure the GTP-associated active RhoA, the following cell lines were used: Caco-2, ECV304 and HpMec. All cells were grown at standard conditions (37° C., 5% CO2 and 95% rH). 4 h before the experiment, cells were starved by serum withdrawal. To induce GEF-activity, cells were stimulated with thrombin, LPS or PMA for the indicated time in presence or absence of 50 μg/ml XIB1-a or XIB1-b. After stimulation, membrane fractions were prepared by using the commercial available “Compartemental Protein Extraction Kit” from Biochain Institutes. Membrane fractions were prepared according to the manufacturer instructions. The membrane fraction was separated on 15% polyacrylamide gel according to standard procedures of gel electrophoresis. The gels were afterwards blotted on a nitrocellulose membrane according to standard procedures of western blotting. GTP-bound RhoA was detected using RhoA-GTP monoclonal antibody from NewEast Inc. in a dilution of 1:5000. Protein bands were analyzed with the Dolphin-1D Gel analysis system (Wealtec).

GTP-bound RhoA [4] = assay: GTP-associated active RhoA in HpMec membrane fraction (western blot); details: HpMec
Procedure: as §2

[5] = system: Phosphorylated Myosin Light Chain (MLC) and actin stress fibers; assay: MLC phosphorylation and actin stress fiber formation in ECV304 cells (microscopy score)
Procedure: (§3) To measure MLC phosphorylation and actin stress fiber formation, the following cell lines were used: Caco-2, ECV304 and HpMec. All cells were grown at standard conditions (37° C., 5% CO2 and 95% rH). Culture Medium used: for Caco-2: DMEM+1 mM sodium pyruvate+20% FCS+1% Penicillin Streptomycin; for ECV 304: RPMI 1640+10% FCS+1% Penicillin Streptomycin; and for HpMec: IMDM+25 mM Hepes+10% Human Serum+1% Penicillin Streptomycin+1% L-Glutamine+ECGS/Heparin 2 ml. 4 h before the experiment, cells were starved by serum withdrawal. To induce GEF-activity, cells were stimulated with thrombin, LPS or PMA for the indicated time in presence or absence of 50 μg/ml XIB1-a or XIB1-b. After stimulation, cells were fixed using 4% PFA. Phospho MLC was detected by using the “rabbit anti phosphor-myosin light chain antibody” from Chemicon in a concentration of 3 μl/ml in PBS (Gibco) supplemented with 0.1% Triton X-100. As detection antibody, the Alexa 448 tagged “anti Rabbit IgG Antibody” from Invitrogen was used in a concentration of 0.5 μl/ml in PBS (Gibco) supplemented with 0.1% Triton X-100. Aktin was detected using TRITC-labeled Phalloidin in a concentration of 0.5 μl/ml in PBS (Gibco) supplemented with 0.1% Triton. Stained cells were analyzed by using a Zeiss Laser Scan microscope. Evaluation of the cyto-skeletal activation was performed by 2 independent observers that were blinded to the conditions. Evaluation criteria were set as follows:
(§4) Actin: parallel actin bundles absent=0; distinct bundle formation=1; prominent parallel bundles=2; Phospho-MLC: present at cell poles=0; slight co-localization with actin bundles=1; prominent co-localization with actin bundles=2

[6] = system: Phosphorylated Myosin Light Chain (MLC) and actin stress fibers; assay: MLC phosphorylation and actin stress fiber formation in Caco-2 cells (microscopy score)
Procedure: as §3, §4

[7] = ECV 304, LPS 100 μg/ml, 1 min, with or without peptide 50 μg/ml
[8] = ECV 304, LPS 100 μg/ml, 5 min, with or without peptide 50 μg/ml
[9] = ECV 304, Thrombin 1 U/ml, 1 min, with or without peptide 50 μg/ml
[10] = ECV 304, Thrombin 1 U/ml, 5 min, with or without peptide 50 μg/ml
[11] = ECV 304, no stimulus, 1 min, peptide 50 μg/ml
[12] = ECV 304, no stimulus, 5 min, peptide 50 μg/ml
[13] = Thrombin 1 U/ml, 1 min, with or without peptide 50 μg/ml
[14] = Thrombin 1 U/ml, 5 min, with or without peptide 50 μg/ml
[15] = no stimulus, 1 min, peptide 50 μg/ml
[16] = no stimulus, 5 min, peptide 50 μg/ml
[17] = CaCo-2, PMA 1 μg/ml, 1 min, with or without peptide 50 μg/ml
[18] = CaCo-2, PMA 1 μg/ml, 5 min, with or without peptide 50 μg/ml
[19] = CaCo-2, no stimulus, 1 min, peptide 50 μg/ml
[20] = CaCo-2, no stimulus, 5 min, peptide 50 μg/ml

Row | Sequence | GEF-activity, relative values compared to unstimulated control (Mean) (GEF [1]; [7]) | GEF-activity, relative values compared to unstimulated control (Mean) (GEF [1]; [8]) | GEF-activity, relative values compared to unstimulated control (Mean) (GEF [1]; [9]) | GEF-activity, relative values compared to unstimulated control (Mean) (GEF [1]; [10]) | GEF-activity, relative values compared to unstimulated control (Mean) (GEF [1]; [11]) | GEF-activity, relative values compared to unstimulated control (Mean) (GEF [1]; [12]) | GEF-activity, relative values compared to unstimulated control (Mean) (GEF [2]; [13]) | GEF-activity, relative values compared to unstimulated control (Mean) (GEF [2]; [14]) | GEF-activity, relative values compared to unstimulated control (Mean) (GEF [2]; [15]) | GEF-activity, relative values compared to unstimulated control (Mean) (GEF [2]; [16]) | GTP-bound RhoA, relative values compared to unstimulated control (Mean) (GTP-bound RhoA [3]; [7]) | GTP-bound RhoA, relative values compared to unstimulated control (Mean) (GTP-bound RhoA [3]; [8]) | GTP-bound RhoA, relative values compared to unstimulated control (Mean) (GTP-bound RhoA [3]; [9]) | GTP-bound RhoA, relative values compared to unstimulated control (Mean) (GTP-bound RhoA [3]; [10]) | GTP-bound RhoA, relative values compared to unstimulated control (Mean) (GTP-bound RhoA [3]; [11]) | GTP-bound RhoA, relative values compared to unstimulated control (Mean) (GTP-bound RhoA [3]; [12]) | GTP-bound RhoA, relative values compared to unstimulated control (Mean) (GTP-bound RhoA [4]; [13]) | GTP-bound RhoA, relative values compared to unstimulated control (Mean) (GTP-bound RhoA [4]; [14]) | GTP-bound RhoA, relative values compared to unstimulated control (Mean) (GTP-bound RhoA [4]; [15]) | GTP-bound RhoA, relative values compared to unstimulated control (Mean) (GTP-bound RhoA [4]; [16]) | also measured
1 | GRRPGGASGG (/note=“Description of artificial sequence cingulin-derived peptide XIB1-a”) | 1.7* | 1.3* | 2.5* | 1.5* | 1 | 1 | 1.8* | 2.1* | 1 | 1 | 1.6* | 1.7* | 2.1* | 1.9* | 1 | 1 | 2.1* | 1.3* | 1 | 1 | MLC phosphorylation and actin stress fiber formation, evaluation score (Mean) [5, 7]: 1*; MLC phosphorylation and actin stress fiber formation, evaluation score (Mean) [5, 8]: 1*; MLC phosphorylation and actin stress fiber formation, evaluation score (Mean) [5, 9]: 1*; MLC phosphorylation and actin stress fiber formation, evaluation score (Mean) [5, 10]: 1*; MLC phosphorylation and actin stress fiber formation, evaluation score (Mean) [5, 11]: 1; MLC phosphorylation and actin stress fiber formation, evaluation score (Mean) ([5]; ECV 304, no stimulus, 1 min, peptide 50 μg/ml, listed as XIB-a): 0; MLC phosphorylation and actin stress fiber formation, evaluation score (Mean) [6, 17]: 1*; MLC phosphorylation and actin stress fiber formation, evaluation score (Mean) [6, 18]: 2*; MLC phosphorylation and actin stress fiber formation, evaluation score (Mean) [6, 19]: 0; MLC phosphorylation and actin stress fiber formation, evaluation score (Mean) [6, 20]: 0
2 | GRRPLGGISGG (/note=“Description of artificial sequence cingulin-derived peptide XIB1-b”) | 1.7* | 1.3* | 2.5* | 1.5* | 1 | 1 | 1.8* | 2.1* | 1 | 1 | 1.6* | 1.7* | 2.1* | 1.9* | 1 | 1 | 2.1* | 1.3* | 1 | 1 | MLC phosphorylation and actin stress fiber formation, evaluation score (Mean) [5, 7]: 1*; MLC phosphorylation and actin stress fiber formation, evaluation score (Mean) [5, 8]: 1*; MLC phosphorylation and actin stress fiber formation, evaluation score (Mean) [5, 9]: 1*; MLC phosphorylation and actin stress fiber formation, evaluation score (Mean) [5, 10]: 1*; MLC phosphorylation and actin stress fiber formation, evaluation score (Mean) [6, 17]: 1*; MLC phosphorylation and actin stress fiber formation, evaluation score (Mean) [6, 18]: 2*; MLC phosphorylation and actin stress fiber formation, evaluation score (Mean) [6, 19]: 0; MLC phosphorylation and actin stress fiber formation, evaluation score (Mean) [6, 20]: 0
